In US12421252B2, “Spiro (isobenzofuranazetidine) compounds for the treatment of autoimmune disease” (Hoffmann-La Roche Inc., priority 2020, dated 2025):

How the values were obtained:
hERG channel = biological target: T1, hERG channel (Homo sapiens, UniProt Q12809); test: hERG channel inhibition assay (patch-clamp, CHO hERG cells); assay type: cell-based; settings: for IC50 / IC20: CHO hERG cells, whole-cell patch-clamp; for IC20: human, CHO cells stably expressing hERG; for hERG IC20/TLR7 IC50 / hERG IC20/TLR8 IC50 / hERG IC20/TLR9 IC50: safety ratio
T1 construct: expressed in transfected cells
Description: hERG Channel Inhibition Assay:
The hERG K+ channels were cloned in humans and stably expressed in a CHO (Chinese hamster ovary) cell line. CHOhERG cells were used for patch-clamp (voltage-clamp, whole-cell) experiments. Cells were stimulated by a voltage pattern to activate hERG channels and conduct IKhERG Currents (rapid delayed outward rectifier potassium current of the hERG channel). After the cells were stabilized for a few minutes, the amplitude and kinetics of IKhERG were recorded at a stimulation frequency of 0.1 Hz, (6 bpm). Thereafter, the test compound was added to the preparation at increasing concentrations. For each concentration, an attempt was made to reach a steady-state effect, usually, this was achieved within 3-10 min at which time the next highest concentration was applied. The amplitude and kinetics of IKhERG are recorded in each concentration of the drug which were compared to the control values (taken as 100%). (references: Redfern W S, Carlsson L, Davis A S, Lynch W G, MacKenzie I, Palethorpe S, Siegl P K, Strang I, Sullivan A T, Wallis R, Camm A J, Hammond T G. 2003; Relationships between preclinical cardiac electrophysiology, clinical QT interval prolongation and torsade de pointes for a broad range of drugs: evidence for a provisional safety margin in drug development. Cardiovasc. Res. 58:32-45, Sanguinetti M C, Tristani-Firouzi M. 2006; hERG potassium channels and cardiac arrhythmia. Nature 440:463-469, Webster R, Leishman D, Walker D. 2002; Towards a drug concentration effect relationship for QT prolongation and torsades de pointes. Curr. Opin. Drug Discov. Devel. 5:116-26).

CYP3A4 = biological target: T2, CYP3A4 (Homo sapiens, UniProt P08684); test: CYP inhibition assay in human liver microsome, CYP3A4; assay type: in vitro ADME; settings: percentage inhibition, substrate Midazolam 5 μM, <0: not or weak inhibitor
T2 construct: tissue BD-Gentest 452117; host or cells: human liver microsomes
Description: This is a high throughput screening assay used for assessment of reversible inhibition of CYP2C9, CYP2D6, and CYP3A4 activity of test compounds in human liver microsome (HLM) in early discovery stage.
Procedure 10 mM DMSO stock solutions of test compounds were diluted in DMSO to generate 2 mM intermediate stock solution. 250 nL of intermediate stock solution were transferred in duplicate into 3 separate 384 well microtitre plates (assay-ready plates). A mixture of HLM and each substrate was made up. 45 μL of HLM substrate mix was then transferred to each well of an assay ready plate and mixed. The negative (solvent) and positive controls (standard inhibitor for each CYP) were included in each assay ready plate. The assay ready plate was warmed to 37° C. in an incubator over 10 minutes. 5 μL pre-warmed NADPH regenerating system was added to each incubation well to start the reaction. Final incubation volume was 50 μL. The assay plate then was placed back in the 37° C. incubator. After incubation (10 minutes for CYP2D6) for 5 minutes, incubates were quenched by addition of 50 μL 100% acetonitrile containing internal standards (400 ng/mL 13C6-4′-OH-Diclofenac, 20 ng/mL D3-Dextrorphan and 20 ng/mL D4-1′OH-Midazolam). The supernatants were collected for RapidFire/MS/MS analysis.
RapidFire online solid phase extraction/sample injection system (Agilent) coupled with API4000 triple quadrupole mass spectrometer (AB Sciex) were used for sample analysis. The mobile phase composed of acetonitrile and water supplemented with 0.1% formic acid. A C4 solid phase extraction cartridge is used for sample separation. MS detection is achieved in positive ion MRM mode.
Data analysis Peak areas for substrate, metabolite and internal standard are determined using the RapidFire integrator software (version 3.6.12009.12296). Peak area ratios (PAR) of metabolite and internal standard (stable-labelled metabolite) are then calculated. The measurement window for each experiment is then defined: PAR (0% activity)=average PAR for all incubations containing concentrated inhibitor; Par (100% activity)=average PAR for all incubations containing no inhibitor (DMSO controls); % Activity (test inhibitor)=[PAR (test inhibitor)-PAR (0% activity)]/[PAR (100% activity)-PAR (0% activity)]; % Inhibition (test inhibitor)=100-% Activity (test inhibitor).

T1 sequence (Q12809 whole entry): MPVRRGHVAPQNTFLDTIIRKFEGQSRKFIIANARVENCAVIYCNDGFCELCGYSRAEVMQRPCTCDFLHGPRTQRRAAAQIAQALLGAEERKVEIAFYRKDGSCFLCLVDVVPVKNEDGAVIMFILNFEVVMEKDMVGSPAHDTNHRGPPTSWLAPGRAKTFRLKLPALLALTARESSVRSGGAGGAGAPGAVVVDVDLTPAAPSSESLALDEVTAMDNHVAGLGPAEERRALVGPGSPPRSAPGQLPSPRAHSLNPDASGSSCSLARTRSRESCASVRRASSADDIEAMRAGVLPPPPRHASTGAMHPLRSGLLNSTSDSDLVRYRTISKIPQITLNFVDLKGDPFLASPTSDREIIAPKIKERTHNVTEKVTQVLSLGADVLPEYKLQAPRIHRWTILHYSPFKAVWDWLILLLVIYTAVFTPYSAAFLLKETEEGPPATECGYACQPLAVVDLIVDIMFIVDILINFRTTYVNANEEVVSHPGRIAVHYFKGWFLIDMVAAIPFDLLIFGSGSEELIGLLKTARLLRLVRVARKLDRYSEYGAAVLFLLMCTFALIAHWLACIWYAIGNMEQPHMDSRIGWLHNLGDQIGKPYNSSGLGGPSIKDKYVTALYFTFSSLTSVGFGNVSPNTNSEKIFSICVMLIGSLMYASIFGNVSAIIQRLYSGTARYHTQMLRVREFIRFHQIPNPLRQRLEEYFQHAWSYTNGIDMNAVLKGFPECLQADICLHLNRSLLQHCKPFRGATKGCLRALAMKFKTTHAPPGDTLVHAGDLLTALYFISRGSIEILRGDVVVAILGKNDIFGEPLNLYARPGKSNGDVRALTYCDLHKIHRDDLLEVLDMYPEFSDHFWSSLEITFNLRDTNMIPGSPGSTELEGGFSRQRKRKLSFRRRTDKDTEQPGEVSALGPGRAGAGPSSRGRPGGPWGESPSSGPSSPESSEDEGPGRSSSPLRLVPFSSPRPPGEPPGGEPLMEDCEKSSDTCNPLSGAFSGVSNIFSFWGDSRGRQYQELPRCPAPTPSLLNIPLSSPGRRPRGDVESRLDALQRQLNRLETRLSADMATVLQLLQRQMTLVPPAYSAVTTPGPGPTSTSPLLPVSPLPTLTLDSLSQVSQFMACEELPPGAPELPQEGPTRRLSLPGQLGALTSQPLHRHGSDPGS
T2 sequence (P08684 whole entry): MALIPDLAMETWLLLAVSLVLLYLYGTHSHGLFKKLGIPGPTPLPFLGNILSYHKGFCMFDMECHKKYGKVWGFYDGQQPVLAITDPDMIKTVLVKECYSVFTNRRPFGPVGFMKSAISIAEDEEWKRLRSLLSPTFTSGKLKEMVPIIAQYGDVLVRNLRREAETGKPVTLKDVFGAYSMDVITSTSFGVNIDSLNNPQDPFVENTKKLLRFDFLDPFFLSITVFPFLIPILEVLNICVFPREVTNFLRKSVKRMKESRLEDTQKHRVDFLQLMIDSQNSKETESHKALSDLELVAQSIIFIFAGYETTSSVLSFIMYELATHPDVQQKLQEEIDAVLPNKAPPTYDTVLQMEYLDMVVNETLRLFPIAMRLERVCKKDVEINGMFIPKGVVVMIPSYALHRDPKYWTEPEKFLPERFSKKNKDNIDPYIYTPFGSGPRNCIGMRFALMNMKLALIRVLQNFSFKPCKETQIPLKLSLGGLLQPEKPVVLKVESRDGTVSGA

SMILES | IC50 (hERG channel) | IC20 (hERG channel) | hERG IC20/TLR7 IC50 (hERG channel) | hERG IC20/TLR8 IC50 (hERG channel) | hERG IC20/TLR9 IC50 (hERG channel) | CYP (%) 3A4 (CYP3A4)
C[C@@H]1CN(c2ccc(C#N)n3ncc(F)c23)C[C@H](CN2CC3(C2)OCc2cc(N4CC5(CN(C)C5)C4)ccc23)O1 [Example 2, 3-fluoro-4-[(2R,6S)-2-methyl-6-[[6-(6-methyl-2,6-diazaspiro[3.3]heptan-2-yl)spiro[1H-isobenzofuran-3,3′-azetidine]-1′-yl]methyl]morpholin-4-yl]pyrazolo[1,5-a]pyridine-7-carbonitrile] | > 20 µM | 9.9 µM | 990 | 396 | 220 | –
[2H]c1ccc2c(N3C[C@H](CN4CC5(C4)OCc4cc(N6CC(C)(N)C6)cnc45)O[C@H](C)C3)ccc(C#N)c2n1 [Example 21, 5-[(2S,6R)-2-[[3-(3-amino-3-methyl-azetidin-1-yl)spiro[5H-furo[3,4-b]pyridine-7,3′-azetidine]-1′-yl]methyl]-6-methyl-morpholin-4-yl]-2-deuterio-quinoline-8-carbonitrile] | > 20 µM | > 10 µM | >1428 | >588 | >181 | 12.5%
[2H]c1ccc2c(N3C[C@H](CN4CC5(C4)OCc4cc(N6C[C@H]7NCCO[C@@H]7C6)ccc45)O[C@H](C)C3)ccc(C#N)c2n1 [Example 17, 5-[(2S,6R)-2-[[6-[(4aR,7aR)-3,4,4a,5,7,7a-hexahydro-2H-pyrrolo[3,4-b][1,4]oxazin-6-yl]spiro[1H-isobenzofuran-3,3′-azetidine]-1′-yl]methyl]-6-methyl-morpholin-4-yl]-2-deuterio-quinoline-8-carbonitrile] | – | – | – | – | – | 14%
[2H]c1ccc2c(N3C[C@H](CN4CC5(C4)OCc4cc(N6CC(N)C6)cnc45)O[C@H](C)C3)ccc(C#N)c2n1 [Example 20, 5-[(2S,6R)-2-[[3-(3-aminoazetidin-1-yl)spiro[5H-furo[3,4-b]pyridine-7,3′-azetidine]-1′-yl]methyl]-6-methyl-morpholin-4-yl]-2-deuterio-quinoline-8-carbonitrile] | – | – | – | – | – | 40.5%
C[C@@H]1CN(c2ccc(C#N)n3ncc(F)c23)C[C@H](CN2CC3(C2)OCc2cc(N4CC(C)(N)C4)ncc23)O1 [Example 24, 4-[(2S,6R)-2-[[6-(3-amino-3-methyl-azetidin-1-yl)spiro[1H-furo[3,4-c]pyridine-3,3′-azetidine]-1′-yl]methyl]-6-methyl-morpholin-4-yl]-3-fluoro-pyrazolo[1,5-a]pyridine-7-carbonitrile] | – | – | – | – | – | −0.5%
C[C@@H]1CN(c2ccc(C#N)n3nccc23)C[C@H](CN2CC3(C2)OCc2cc(N4CC5(CNCCO5)C4)ccc23)O1 [Example 7, 4-[(2R,6S)-2-methyl-6-[[6-(5-oxa-2,8-diazaspiro[3.5]nonan-2-yl)spiro[1H-isobenzofuran-3,3′-azetidine]-1′-yl]methyl]morpholin-4-yl]pyrazolo[1,5-a]pyridine-7-carbonitrile] | – | – | – | – | – | 16.5%
